# Measured values as given in EP2331496B1, “USE OF AN N-ACYL AMINO ACID SELECTED FROM AMONG N-PALMITOYL ALANINE, N-PALMITOYL GLYCINE, AND N-PALMITOYL ISOLEUCINE AS A REGULATING ACTIVE AGENT OF THE GENETIC PROFILE OF SENESCENT REPLICATING FIBROBLASTS OF THE HUMAN SKIN DERMIS” (Societe D'Exploitation De Produits Pour Les Industries …, priority 2008, dated 2010).
# Key:
# [1] = system: gène codant la cytokine pro-inflammatoire IL-6; experiment: Q-PCR gene expression in replicative senescent human dermal fibroblasts: IL-6; format: cell-based, humains; details: aged fibroblasts from adult dermis (16 passages), cultured 96 h with the substance, compared with young cells (8 passages, 100 %)
# From the text: (§1) Des fibroblastes humains normaux issus de derme adulte et vieillis de manière accélérée (16 passages en culture) ou non (8 passages en culture) ont été cultivés en présence ou non de chacun des quatre N-acyl amino acides suivants : N-palmitoyl glycine, N-palmitoyl alanine, N-palmitoyl isoleucine et N-cocoyl alanine pendant 96 heures. A la fin de l'expérience, les cellules ont été lavées et extraites pour l'analyse génomique. Cette dernière a été réalisée par Q-PCR ("Quantitative Polymerase Chain Reaction").
# (§2) Pour chacun des diagrammes de ces figures, les résultats sont exprimés en pourcentage de variation des niveaux relatifs d'expression génique par rapport aux cellules jeunes (100 %), les pourcentages en haut des histogrammes expriment les pourcentages de restauration et les abréviations indiquées sont conformes à la nomenclature officielle Genbank.
# [2] = system: gène codant la métallo protéinase MMP-1; experiment: Q-PCR gene expression in replicative senescent human dermal fibroblasts: MMP-1; format: cell-based, humains; details: aged fibroblasts from adult dermis (16 passages), cultured 96 h with the substance, compared with young cells (8 passages, 100 %)
# From the text: as §1, §2
# [3] = system: gène codant la dermatopontine (DPT); experiment: Q-PCR gene expression in replicative senescent human dermal fibroblasts: DPT; format: cell-based, humains; details: aged fibroblasts from adult dermis (16 passages), cultured 96 h with the substance, compared with young cells (8 passages, 100 %)
# From the text: as §1, §2
# [4] = system: gène codant le collagène de type I (COL1A1); experiment: Q-PCR gene expression in replicative senescent human dermal fibroblasts: COL1A1; format: cell-based, humains; details: aged fibroblasts from adult dermis (16 passages), cultured 96 h with the substance, compared with young cells (8 passages, 100 %)
# From the text: as §1, §2
# [5] = system: sujets caucasiens âgés de 45 ans à 76 ans et présentant des rides de vieillissement cutané; experiment: In vivo anti-wrinkle efficacy, topical gel-cream on the eye contour (crow's feet); set-up: species or system humain; details: 1% gel-cream, topical twice daily on the face, crow's feet zone, 42 days, about 20 volunteers/group; results expressed relative to a commercial reference lipopeptide product
# From the text: Les N-acyl amino acides testés ont été formulés en gel-crème à 1% dans le couple d'émulsionnants MONTANOV™ 202, MONTANOV™ 82, l'épaississant SEPIPLUS™ 400 ainsi que le MONTANOX™ 60D, afin d'effectuer des applications topiques biquotidiennes sur le visage de sujets caucasiens âgés de 45 ans à 76 ans et présentant des rides de vieillissement cutané (environ 20 volontaires/groupe). Un produit lipopeptidique commercial de référence a également été testé selon le même protocole expérimental.
# La région anatomique choisie pour cette étude était la zone du contour de l'oeil (patte d'oie).
# La durée du traitement a été de 42 jours.
# Les résultats ont été exprimés en termes de surface ridée totale et de nombre de rides par rapport à un produit lipopeptidique commercial de référence.
# [6] = system: gène codant le nidogène (NID); experiment: Q-PCR gene expression in replicative senescent human dermal fibroblasts: NID; format: cell-based, humains; details: aged fibroblasts from adult dermis (16 passages), cultured 96 h with the substance, compared with young cells (8 passages, 100 %)
# From the text: as §1, §2
# [7] = system: gène codant la tenascine C (TNC); experiment: Q-PCR gene expression in replicative senescent human dermal fibroblasts: TNC; format: cell-based, humains; details: aged fibroblasts from adult dermis (16 passages), cultured 96 h with the substance, compared with young cells (8 passages, 100 %)
# From the text: as §1, §2
# [8] = system: gène codant la pleiotrophine (PTN); experiment: Q-PCR gene expression in replicative senescent human dermal fibroblasts: PTN; format: cell-based, humains; details: aged fibroblasts from adult dermis (16 passages), cultured 96 h with the substance, compared with young cells (8 passages, 100 %)
# From the text: as §1, §2
# [9] = system: gène codant la protéine de choc thermique (HSP 90A); experiment: Q-PCR gene expression in replicative senescent human dermal fibroblasts: HSP 90A; format: cell-based, humains; details: aged fibroblasts from adult dermis (16 passages), cultured 96 h with the substance, compared with young cells (8 passages, 100 %)
# From the text: as §1, §2
# [10] = system: gène codant la Serpine 2B; experiment: Q-PCR gene expression in replicative senescent human dermal fibroblasts: Serpine 2B; format: cell-based, humains; details: aged fibroblasts from adult dermis (16 passages), cultured 96 h with the substance, compared with young cells (8 passages, 100 %)
# From the text: as §1, §2
# [11] = system: gène codant le biglycane (BGN); experiment: Q-PCR gene expression in replicative senescent human dermal fibroblasts: BGN; format: cell-based, humains; details: aged fibroblasts from adult dermis (16 passages), cultured 96 h with the substance, compared with young cells (8 passages, 100 %)
# From the text: as §1, §2
# [12] = system: gène codant la Serpine 1H (HSP47); experiment: Q-PCR gene expression in replicative senescent human dermal fibroblasts: Serpine 1H (HSP47); format: cell-based, humains; details: aged fibroblasts from adult dermis (16 passages), cultured 96 h with the substance, compared with young cells (8 passages, 100 %)
# From the text: as §1, §2
# [13] = system: gène codant la vimentine; experiment: Q-PCR gene expression in replicative senescent human dermal fibroblasts: vimentine; format: cell-based, humains; details: aged fibroblasts from adult dermis (16 passages), cultured 96 h with the substance, compared with young cells (8 passages, 100 %)
# From the text: as §1, §2
structure (smiles),measurement,setting,value
CCCCCCCCCCCCCCCC(=O)N[C@@H](C)C(=O)O [N-palmitoyl alanine],niveau d'expression du gène codant la cytokine pro-inflammatoire IL-6,[1],diminution du niveau d'expression
same,niveau d'expression du gène codant la métallo protéinase MMP-1,[2],diminution du niveau d'expression
same,niveau d'expression du gène codant la dermatopontine (DPT),[3],augmentation du niveau d'expression
same,niveau d'expression du gène codant le collagène de type I (COL1A1),[4],augmentation du niveau d'expression
same,diminution de la surface ridée totale,[5],15%
CCCCCCCCCCCCCCCC(=O)NCC(=O)O [N-palmitoyl glycine],niveau d'expression du gène codant la cytokine pro-inflammatoire IL-6,[1],diminution du niveau d'expression
same,niveau d'expression du gène codant la métallo protéinase MMP-1,[2],diminution du niveau d'expression
same,niveau d'expression du gène codant la dermatopontine (DPT),[3],augmentation du niveau d'expression
same,niveau d'expression du gène codant le nidogène (NID),[6],augmentation du niveau d'expression
same,niveau d'expression du gène codant la tenascine C (TNC),[7],augmentation du niveau d'expression
same,niveau d'expression du gène codant la pleiotrophine (PTN),[8],augmentation du niveau d'expression
same,niveau d'expression du gène codant la protéine de choc thermique (HSP 90A),[9],augmentation du niveau d'expression
same,diminution du nombre de rides,[5],35%
CCCCCCCCCCCCCCCC(=O)N[C@H](C(=O)O)[C@@H](C)CC [N-palmitoyl isoleucine],niveau d'expression du gène codant la cytokine pro-inflammatoire IL-6,[1],diminution du niveau d'expression
same,niveau d'expression du gène codant la Serpine 2B,[10],diminution du niveau d'expression
same,niveau d'expression du gène codant la dermatopontine (DPT),[3],augmentation du niveau d'expression
same,niveau d'expression du gène codant le collagène de type I (COL1A1),[4],augmentation du niveau d'expression
same,niveau d'expression du gène codant le biglycane (BGN),[11],augmentation du niveau d'expression
same,niveau d'expression du gène codant le nidogène (NID),[6],augmentation du niveau d'expression
same,niveau d'expression du gène codant la tenascine C (TNC),[7],augmentation du niveau d'expression
same,niveau d'expression du gène codant la pleiotrophine (PTN),[8],augmentation du niveau d'expression
same,niveau d'expression du gène codant la protéine de choc thermique (HSP 90A),[9],augmentation du niveau d'expression
same,niveau d'expression du gène codant la Serpine 1H (HSP47),[12],augmentation du niveau d'expression
same,niveau d'expression du gène codant la vimentine,[13],augmentation du niveau d'expression
same,diminution du nombre de rides,[5],40%
